The record followed here is US20130267532A1, “CYCLIC AMIDE COMPOUNDS AND THEIR USE IN THE TREATMENT OF DISEASE” (priority 2010, published 2013).

For one data set, the target named is T1, Recombinant human TLR7 (Homo sapiens, UniProt Q9NYK1).
T1 construct: expressed in transfected cells; host or cells: HEK293 cell line stably expressing the pNiFty2-SEAP reporter plasmid
T1 sequence (Q9NYK1 27-1049): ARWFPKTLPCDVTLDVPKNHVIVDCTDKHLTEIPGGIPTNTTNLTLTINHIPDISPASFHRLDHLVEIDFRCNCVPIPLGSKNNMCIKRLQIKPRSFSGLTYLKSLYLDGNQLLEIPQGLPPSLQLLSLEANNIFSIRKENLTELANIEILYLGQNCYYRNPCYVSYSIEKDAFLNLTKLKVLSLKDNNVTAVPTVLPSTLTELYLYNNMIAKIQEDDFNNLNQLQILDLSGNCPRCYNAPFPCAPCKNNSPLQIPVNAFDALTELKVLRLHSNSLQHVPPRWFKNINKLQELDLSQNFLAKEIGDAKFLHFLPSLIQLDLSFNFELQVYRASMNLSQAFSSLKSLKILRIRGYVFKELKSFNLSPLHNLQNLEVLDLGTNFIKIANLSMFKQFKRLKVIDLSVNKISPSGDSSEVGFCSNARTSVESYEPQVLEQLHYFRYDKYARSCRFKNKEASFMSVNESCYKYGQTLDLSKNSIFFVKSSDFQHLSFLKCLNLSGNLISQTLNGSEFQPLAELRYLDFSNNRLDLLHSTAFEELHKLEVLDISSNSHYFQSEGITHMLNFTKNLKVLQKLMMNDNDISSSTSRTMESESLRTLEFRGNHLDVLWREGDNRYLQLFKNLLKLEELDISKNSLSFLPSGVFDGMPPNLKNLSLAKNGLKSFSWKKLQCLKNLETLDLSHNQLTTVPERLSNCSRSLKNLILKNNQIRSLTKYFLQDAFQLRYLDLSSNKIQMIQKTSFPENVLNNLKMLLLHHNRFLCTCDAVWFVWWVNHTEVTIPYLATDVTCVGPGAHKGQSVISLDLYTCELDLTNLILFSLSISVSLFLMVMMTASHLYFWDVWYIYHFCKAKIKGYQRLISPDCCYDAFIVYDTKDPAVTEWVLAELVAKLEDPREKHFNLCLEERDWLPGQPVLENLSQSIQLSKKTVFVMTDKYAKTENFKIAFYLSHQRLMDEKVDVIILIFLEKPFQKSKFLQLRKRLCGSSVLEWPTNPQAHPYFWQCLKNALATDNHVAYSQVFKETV
Put plainly: Human TLR7 assay (SEAP reporter in HEK293 cells). The class given is cell-based. The following applies: TLR7 activation, SEAP induction, overnight incubation at 37° C., 0.1% DMSO. The method, then:
The ability of compounds to activate TLR7 in vitro was assessed using the human TLR7 assay described below.
Recombinant human TLR7 was stably expressed in a HEK293 cell line already stably expressing the pNiFty2-SEAP reporter plasmid; integration of the reporter gene was maintained by selection with the antibiotic zeocin. The most common variant sequence of human TLR7 (represented by the EMBL sequence AF240467) was cloned into the mammalian cell expression vector pUNO and transfected into this reporter cell-line. Transfectants with stable expression were selected using the antibiotic blasticidin. In this reporter cell-line, expression of secreted alkaline phosphatase (SEAP) is controlled by an NF-κB/ELAM-1 composite promoter comprising five NF-κB sites combined with the proximal ELAM-1 promoter. TLR signaling leads to the translocation of NF-κB and activation of the promoter results in expression of the SEAP gene. TLR7-specific activation was assessed by determining the level of SEAP produced following overnight incubation of the cells at 37° C. with the standard compound in the presence of 0.1% (v/v) dimethylsulfoxide (DMSO). Concentration dependent induction of SEAP production by compounds was expressed as the concentration of compound which produced half of the maximal level of SEAP induction for that compound (EC50).

Another data set deals with T2, hERG potassium channel (Homo sapiens, UniProt Q12809).
T2 construct: expressed in transfected cells; host or cells: Chinese hamster ovary K1 (CHO) cells stably expressing hERG
T2 sequence (Q12809 whole entry): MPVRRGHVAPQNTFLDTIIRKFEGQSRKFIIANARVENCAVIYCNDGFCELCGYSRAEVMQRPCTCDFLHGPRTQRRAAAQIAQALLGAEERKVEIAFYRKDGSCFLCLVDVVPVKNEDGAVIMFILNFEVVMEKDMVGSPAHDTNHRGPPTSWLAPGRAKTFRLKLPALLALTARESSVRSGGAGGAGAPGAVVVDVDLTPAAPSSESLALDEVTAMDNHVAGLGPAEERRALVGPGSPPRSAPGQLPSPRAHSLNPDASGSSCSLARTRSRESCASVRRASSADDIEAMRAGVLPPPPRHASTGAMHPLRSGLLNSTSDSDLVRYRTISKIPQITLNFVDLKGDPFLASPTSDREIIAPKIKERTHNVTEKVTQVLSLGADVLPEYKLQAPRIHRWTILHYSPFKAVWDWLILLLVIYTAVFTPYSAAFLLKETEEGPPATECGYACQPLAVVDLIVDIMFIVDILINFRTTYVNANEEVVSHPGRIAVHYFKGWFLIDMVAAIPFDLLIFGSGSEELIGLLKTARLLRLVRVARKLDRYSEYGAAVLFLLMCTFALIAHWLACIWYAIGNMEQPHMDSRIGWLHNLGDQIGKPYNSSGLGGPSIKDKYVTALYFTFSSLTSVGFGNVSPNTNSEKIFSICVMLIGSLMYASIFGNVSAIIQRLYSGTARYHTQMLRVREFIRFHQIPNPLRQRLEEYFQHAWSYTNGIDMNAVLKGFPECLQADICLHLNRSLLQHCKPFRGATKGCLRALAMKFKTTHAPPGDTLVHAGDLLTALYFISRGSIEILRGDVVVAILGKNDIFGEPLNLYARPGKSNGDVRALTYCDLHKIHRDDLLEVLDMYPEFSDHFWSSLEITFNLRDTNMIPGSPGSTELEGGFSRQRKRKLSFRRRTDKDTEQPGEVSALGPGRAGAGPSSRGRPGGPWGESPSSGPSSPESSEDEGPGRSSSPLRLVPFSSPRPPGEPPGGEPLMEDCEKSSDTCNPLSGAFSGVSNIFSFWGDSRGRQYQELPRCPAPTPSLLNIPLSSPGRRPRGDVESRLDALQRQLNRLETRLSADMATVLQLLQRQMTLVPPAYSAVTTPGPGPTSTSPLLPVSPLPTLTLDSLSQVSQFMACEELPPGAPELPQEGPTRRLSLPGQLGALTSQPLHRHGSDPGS
In words: hERG analysis Method 1 (QPatch HT automated patch clamp, CHO cells). It counts as cell-based. The following applies: hERG-expressing CHO cells, tail current, room temperature (22±2° C.), 4 cumulative concentrations. As to the method:
hERG (Human Ether-a-go-go Related Gene) Analysis—Method 1
The hERG potassium current is measured in a hERG-stably-expressing Chinese hamster ovary K1 (CHO) cells. The experiments were performed using an automated planar patch-clamp system QPatch HT (Sophion Bioscience A/S). The application of pressure for forming gigaseals and whole-cell patch clamp configuration were established using the QPatch assay software. Patch-clamp experiments were performed in voltage-clamp mode and whole-cell currents were recorded from individual cells. The following stimulation protocol was applied to investigate the effects of compounds on hERG potassium channel.: The membrane potential was held at −80 mV and repetitively (every 15 s) depolarized to +20 mV for 5 s after the pulse to −50 mV for 20 ms served to define the baseline, followed by repolarizing step to −50 mV for 5 s to evaluate of the tail current amplitude. Experiments were conducted at room temperature (22±2° C.).
Effects of compounds were determined from cumulative applications of increasing 4 concentrations and calculated as percent of blocked current. The data points were fitted with Hill equation to calculate half-maximal inhibition concentrations.
The test solution includes:
Extracellular solution (mM): 2 mM of CaCl2, 1 mM of MgCl2, 10 mM of HEPES, 4 mM of KCl, 145 mM of NaCl, and 10 mM of glucose; and
Intracellular solution (mM): 5.4 mM of CaCl2, 1.8 mM of MgCl2, 10 mM of HEPES, 31 mM of KOH, 10 mM of EGTA, 120 mM of KCl, and 4 mM of ATP.
In general terms: The hERG channel carries a current that helps repolarise heart muscle cells.

A short description of another data set: PAMPA analysis. The note with it: pH 7.4, GIT Lipid-0, incubation for 4 h, read-out: Pe pH 7.4. The class given is in vitro ADME. The method, then:
Donor: System Solution Concentrate (pION inc.) (25 mL) and DMSO (50 mL) (f.c. 5%) was diluted to 1 L with milliQ water, adjusted to pH5.0 or 7.4 with NaOH. Compound solution (5 μL, 10 mM solution in DMSO) was added to 1 mL of system solution prepared as above, and filtered.
Acceptor: Acceptor Sink Buffer(pION inc.)
Compound solution (200 μL) was added to Donor plate. GIT Lipid-0 (pION inc.) […] was added to Acceptor plate. Acceptor Sink Buffer (200 μL) was added to Acceptor plate. Donor and Acceptor plates were superposed. After incubation for 4 h under humidified conditions, the concentration of test compound in both solutions of Acceptor and Donor plates were measured by UV plate reader (190-500 nm). Permeation coefficient Pe(10^−6 cm/sec) was calculated by the equation shown below.
[formula] ra=(VD/VA)Pe^(A→D)/Pe^(D→A)=rVPe^(A→D)/Pe^(D→A)
rV=(VD/VA) • VD=volume of donor well • VA=volume of acceptor well • t=permeation time • τ^SS=steady state time • R=retention • CD and CA=concentration in donor and acceptor well The results are shown in Table 4.
A general note: PAMPA measures passive passage across an artificial lipid membrane.

As a reminder, the EC50 is the concentration at which the effect is half-maximal. As a reminder, the IC50 is the midpoint of a concentration-inhibition curve. The low end stands for inhibition by little substance, the high end for a need for much substance. For the compound `CCC[C@@H](CO)Nc1nc(N)nc(C)c1Cc1ccc(N2CCN(C)CC2=O)cc1OC` [Example 4, (S)-1-(4-{[2-Amino-4-(1-hydroxypentan-2-ylamino)-6-methylpyrimidin-5-yl]methyl}-3-methoxyphenyl)-4-methylpiperazin-2-one], the EC50 at Recombinant human TLR7 is 200 nM. This compound also came in with an IC50 against hERG potassium channel of over 10000 nM. For the same compound, the Papp at 4 h, 50 µM in the data set “PAMPA analysis” is 1.3 ×10⁻⁶ cm/s.
For the compound `CCCCCNc1nc(N)nc(C)c1Cc1ccc(N2CCN(C)CC2=O)cc1OC` [Example 2, 1-(4-{[2-Amino-4-methyl-6-(pentylamino)pyrimidin-5-yl]methyl}-3-methoxyphenyl)-4-methylpiperazin-2-one], the EC50 on Recombinant human TLR7 was 63.1 nM. For the same compound, the midpoint of inhibition against hERG potassium channel, the IC50, lay at 800 nM. The Papp at 4 h, 50 µM in the data set “PAMPA analysis” stood at 44.2 ×10⁻⁶ cm/s.
On the same counts, the results for `CCCCNc1nc(N)nc(C)c1Cc1ccc(N2CCN(C)CC2=O)cc1OC` [Example 1, 1-(4-{[2-Amino-4-(butylamino)-6-methylpyrimidin-5-yl]methyl}-3-methoxyphenyl)-4-methylpiperazin-2-one] are 63.1 nM, 2900 nM and 35.6 ×10⁻⁶ cm/s.
Taken in the same sequence, the figures for `CCC[C@@H](CCO)Nc1nc(N)nc(C)c1Cc1ccc(N2CCNCC2=O)cc1OC` [Example 5, (S)-1-(4-{[2-Amino-4-(1-hydroxyhexan-3-ylamino)-6-methylpyrimidin-5-yl]methyl}-3-methoxyphenyl)piperazin-2-one] were 126 nM, over 10000 nM and under 0.1 ×10⁻⁶ cm/s.
Regarding `CCC[C@@H](CCO)Nc1nc(N)nc(C)c1Cc1ccc(N2CCN(C)CC2=O)cc1OC` [Example 3, (S)-1-(4-{[2-Amino-4-(1-hydroxyhexan-3-ylamino)-6-methylpyrimidin-5-yl]methyl}-3-methoxyphenyl)-4-methylpiperazin-2-one], the EC50 on Recombinant human TLR7 was 25.1 nM. In addition, the IC50 at hERG potassium channel is over 10000 nM. For the same compound, in “PAMPA analysis”, the Papp at 4 h, 50 µM worked out at 23.7 ×10⁻⁶ cm/s.
